The target in assay [1] is GDP-bound NRAS wild-type protein (Homo sapiens, UniProt P01111). Nature of the assay: Binding to NRAS by surface plasmon resonance (SPR), Single Cycle Kinetics. Conditions: SPR.
For assay [2], the target named is GDP-bound HRAS wild-type protein (Homo sapiens, UniProt P01112). Nature of the assay: Binding to HRAS by surface plasmon resonance (SPR), Single Cycle Kinetics. Conditions: SPR.

*1 amine or outer side, *2 acyl side, *3 side chain or, on linkers, in order; H or OH if unused. Where a SMILES comes first, the peptide text is derived from it. Bridges are numbered along the chain shown (N, C = ends). [ ]: non-standard residue; d: D form. The star is where a group is joined. hPhe(3,5-F2-4-CF3) = N[C@@H](CCc1cc(F)c(C(F)(F)F)c(F)c1)C(=O)O; hPhe(3-Cl-4-CF3) = N[C@@H](CCc1ccc(C(F)(F)F)c(Cl)c1)C(=O)O; NPrPhe(4-CF3) = CCCN[C@@H](Cc1ccc(C(F)(F)F)cc1)C(=O)O; X49 = Cc1ccc(C[C@@H](C(=O)[*:2])N(CC2CC2)[*:1])cc1; NPrPhe(4-Me) = CCCN[C@@H](Cc1ccc(C)cc1)C(=O)O; Abu(4,4,4-F3) = N[C@@H](CC(F)(F)F)C(=O)O; NMeGly(cPent) = CN[C@H](C(=O)O)C1CCCC1; Aze(3S-Me) = C[C@H]1CN[C@@H]1C(=O)O; NEtLeu = CCN[C@@H](CC(C)C)C(=O)O; NMeD = CN[C@@H](CC(=O)O)C(=O)O; NMeL = CN[C@@H](CC(C)C)C(=O)O; αMeS = C[C@](N)(CO)C(=O)O; Morpholide = C1CN(*)CCO1; NAllylGly = C=CCNCC(=O)O; NMeA = CN[C@@H](C)C(=O)O; Ac5c = NC1(C(=O)O)CCCC1; Aze = O=C(O)[C@@H]1CCN1; Ac4c = NC1(C(=O)O)CCC1; Sar = CNCC(=O)O; tBu = CC(C)(C)*

GDP-bound HRAS wild-type protein, sequence (P01112 whole entry): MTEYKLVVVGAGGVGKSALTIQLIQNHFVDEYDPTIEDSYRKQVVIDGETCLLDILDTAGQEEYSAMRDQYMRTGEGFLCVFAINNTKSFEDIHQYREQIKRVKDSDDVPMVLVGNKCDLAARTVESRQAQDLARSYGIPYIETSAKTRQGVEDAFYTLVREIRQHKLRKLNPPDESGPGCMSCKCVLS
GDP-bound NRAS wild-type protein, sequence (P01111 whole entry): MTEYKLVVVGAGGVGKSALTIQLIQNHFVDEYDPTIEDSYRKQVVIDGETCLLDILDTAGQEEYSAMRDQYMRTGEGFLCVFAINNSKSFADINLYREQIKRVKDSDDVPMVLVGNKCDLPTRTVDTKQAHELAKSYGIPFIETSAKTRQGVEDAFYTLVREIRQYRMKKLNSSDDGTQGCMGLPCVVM

With `CCCN1C(=O)[C@@H]2[C@@H](C)CN2C(=O)[C@H](C)N(C)C(=O)[C@H]([C@@H](C)CC)NC(=O)[C@H](CC(C)C)N(C)C(=O)C[C@@H](C(=O)N2CCOCC2)N(C)C(=O)[C@H](C2CCCC2)N(C)C(=O)C2(CCCC2)NC(=O)[C@@H]2CCCN2C(=O)[C@H](CCc2ccc(C(F)(F)F)c(Cl)c2)NC(=O)CN(C)C(=O)[C@@H]1Cc1ccc(C)cc1` [PP0138] ([NMeL]I[NMeA][Aze(3S-Me)][NPrPhe(4-Me)][Sar][hPhe(3-Cl-4-CF3)]P[Ac5c][NMeGly(cPent)][NMeD]-Morpholide; lactam N-11), in assay [1], the “NRAS/KRAS (ratio of KD for GDP-bound NRAS wild-type to KD for KRAS)” value is “C (A compound having a KD ratio of 0.1 or more and less than 3 is denoted as C)”. Besides, the “HRAS/KRAS (ratio of KD for GDP-bound HRAS wild-type to KD for KRAS)” value in assay [2] is “C (A compound having a KD ratio of 0.1 or more and less than 3 is denoted as C)”.
Take `CC[C@H](C)[C@@H]1NC(=O)[C@H](CC(C)C)N(C)C(=O)C[C@@H](C(=O)N2CCOCC2)N(C)C(=O)[C@H](C2CCCC2)N(C)C(=O)C2(CCCC2)NC(=O)[C@@H]2CCCN2C(=O)[C@H](CCc2ccc(C(F)(F)F)c(Cl)c2)NC(=O)CN(C)C(=O)[C@H](Cc2ccc(C)cc2)N(CC2CC2)C(=O)CN(C)C(=O)CN(C)C1=O` [PP0064] ([NMeL]I[Sar][Sar][X49][Sar][hPhe(3-Cl-4-CF3)]P[Ac5c][NMeGly(cPent)][NMeD]-Morpholide; lactam N-11): the “NRAS/KRAS (ratio of KD for GDP-bound NRAS wild-type to KD for KRAS)” value in assay [1] was “C (A compound having a KD ratio of 0.1 or more and less than 3 is denoted as C)”. The “HRAS/KRAS (ratio of KD for GDP-bound HRAS wild-type to KD for KRAS)” value in assay [2] is “C (A compound having a KD ratio of 0.1 or more and less than 3 is denoted as C)”.
As to `CCCN1C(=O)CN(C)C(=O)[C@@H]2CCN2C(=O)[C@H](CC(F)(F)F)NC(=O)[C@H](CC(C)C)N(C)C(=O)C[C@@H](C(=O)N2CCOCC2)N(C)C(=O)[C@H](C2CCCC2)N(C)C(=O)C2(CCCC2)NC(=O)[C@@H]2CCCN2C(=O)[C@H](CCc2ccc(C(F)(F)F)c(Cl)c2)NC(=O)CN(C)C(=O)[C@@H]1Cc1ccc(C(F)(F)F)cc1` [PP0304] ([NMeL][Abu(4,4,4-F3)][Aze][Sar][NPrPhe(4-CF3)][Sar][hPhe(3-Cl-4-CF3)]P[Ac5c][NMeGly(cPent)][NMeD]-Morpholide; lactam N-11), in assay [1], the “NRAS/KRAS (ratio of KD for GDP-bound NRAS wild-type to KD for KRAS)” value is “B (a compound having 3 or more and less than 10 is denoted as B)”. Also, in assay [2], the “HRAS/KRAS (ratio of KD for GDP-bound HRAS wild-type to KD for KRAS)” value was “B (a compound having 3 or more and less than 10 is denoted as B)”.
With `CCCN1C(=O)[C@@H]2CCN2C(=O)CN(C)C(=O)[C@H]([C@@H](C)CC)NC(=O)[C@H](CC(C)C)N(C)C(=O)C[C@@H](C(=O)N2CCOCC2)N(C)C(=O)[C@H](C2CCCC2)N(C)C(=O)[C@](C)(COC(C)(C)C)NC(=O)[C@@H]2CCCN2C(=O)[C@H](CCc2cc(F)c(C(F)(F)F)c(F)c2)NC(=O)CN(C)C(=O)[C@@H]1Cc1ccc(C(F)(F)F)cc1` [PP0800] ([NMeL]I[Sar][Aze][NPrPhe(4-CF3)][Sar][hPhe(3,5-F2-4-CF3)]P[αMeS](tBu)[NMeGly(cPent)][NMeD]-Morpholide; lactam N-11), the “NRAS/KRAS (ratio of KD value with respect to GDP-bound NRAS wild-type protein to KD value with respect to KRAS)” value in assay [1] was “C (A compound having a KD ratio of 0.1 or more and less than 3 is denoted as C)”. The “HRAS/KRAS (ratio of KD value with respect to GDP-bound HRAS wild-type protein to KD value with respect to KRAS)” value in assay [2] was “B (a compound having 3 or more and less than 10 is denoted as B)”.
As for `C=CCN1CC(=O)N(C)CC(=O)N(CCC)[C@@H](Cc2ccc(C(F)(F)F)cc2)C(=O)N(C)CC(=O)N[C@@H](CCc2ccc(C(F)(F)F)c(Cl)c2)C(=O)N2CCC[C@H]2C(=O)NC2(CCCC2)C(=O)N(C)[C@@H](C2CCCC2)C(=O)N(C)[C@H](C(=O)N2CCOCC2)CC(=O)N(C)[C@@H](CC(C)C)C(=O)N[C@@H]([C@@H](C)CC)C1=O` [PP0749] ([NMeL]I[NAllylGly][Sar][NPrPhe(4-CF3)][Sar][hPhe(3-Cl-4-CF3)]P[Ac5c][NMeGly(cPent)][NMeD]-Morpholide; lactam N-11), the “NRAS/KRAS (ratio of KD value with respect to GDP-bound NRAS wild-type protein to KD value with respect to KRAS)” value in assay [1] is “B (a compound having 3 or more and less than 10 is denoted as B)”. Besides, the “HRAS/KRAS (ratio of KD value with respect to GDP-bound HRAS wild-type protein to KD value with respect to KRAS)” value in assay [2] was “C (A compound having a KD ratio of 0.1 or more and less than 3 is denoted as C)”.
As to `CCCN1C(=O)CN(C)C(=O)CN(C)C(=O)[C@H]([C@@H](C)CC)NC(=O)[C@H](CC(C)C)N(CC)C(=O)C[C@@H](C(=O)N2CCOCC2)N(C)C(=O)[C@H](C2CCCC2)N(C)C(=O)C2(CCC2)NC(=O)[C@@H]2CCCN2C(=O)[C@H](CCc2ccc(C(F)(F)F)c(Cl)c2)NC(=O)CN(C)C(=O)[C@@H]1Cc1ccc(C(F)(F)F)cc1` [PP1946] ([NEtLeu]I[Sar][Sar][NPrPhe(4-CF3)][Sar][hPhe(3-Cl-4-CF3)]P[Ac4c][NMeGly(cPent)][NMeD]-Morpholide; lactam N-11), the “NRAS/KRAS (ratio of KD value for NRAS to KD value for KRAS)” value in assay [1] (KD ratio, GDP-bound NRAS wild-type vs GDP-bound KRAS wild-type) was “B (a compound having 3 or more and less than 10 is denoted as B)”. For the same molecule, in assay [2] (KD ratio, GDP-bound HRAS wild-type vs GDP-bound KRAS wild-type), the “HRAS/KRAS (ratio of KD value for HRAS to KD value for KRAS)” value is “C (A compound having a KD ratio of 0.1 or more and less than 3 is denoted as C)”.
Turning to `CCC[C@H]1C(=O)N[C@@H]([C@@H](C)CC)C(=O)N2CCC[C@H]2C(=O)N(C)[C@H]2C/C=C\CCN(C2=O)[C@@H](Cc2ccc(C)cc2)C(=O)N(C)CC(=O)N[C@@H](CCc2ccc(C(F)(F)F)c(OC)c2)C(=O)N2C[C@H](OCC)C[C@H]2C(=O)N(C)C2(CCC2)C(=O)N(C)[C@@H](C2CCCC2)C(=O)N(C)[C@H](C(=O)N2CCCC2)CC(=O)N1C` [PP3102, (1S,4S,10S,13S,17S,20S,26S,28R,32S,38S,42Z)-20-cyclopentyl-28-ethoxy-32-[2-[3-methoxy-4-(trifluoromethyl)phenyl]ethyl]-2,14,18,21,24,36-hexamethyl-10-[(1S)-1-methylpropyl]-13-propyl-38-(p-tolylmethyl)-17-(pyrrolidine-1-carbonyl)spiro[2,8,11,14,18,21,24,30,33,36,39-undecazatetracyclo[37.5.1.0^4,8.0^26,30]pentatetracont-42-ene-23,1′-cyclobutane]-3,9,12,15,19,22,25,31,34,37,45-undecone], in assay [1] (GDP-bound wild-type proteins), the “NRAS/KRAS (ratio of KD value with respect to GDP-bound NRAS wild-type protein to KD value with respect to KRAS)” value was “A (a compound having 10 or more and less than 20 is denoted as A)”. In assay [2] (GDP-bound wild-type proteins), the “HRAS/KRAS (ratio of KD value with respect to GDP-bound HRAS wild-type protein to KD value with respect to KRAS)” value is “A (a compound having 10 or more and less than 20 is denoted as A)”.
For the molecule `CCCO[C@@H]1C[C@H]2C(=O)NC3(CC(C)(C)C3)C(=O)N(C)[C@@H](C3CCCC3)C(=O)N(C)[C@H](C(=O)N(C)CC)CC(=O)N(C)[C@H]3CCCc4ccc(cc4)C[C@@H](C(=O)N(C)CC(=O)N[C@@H](CCc4ccc(C(F)(F)F)c(OC)c4)C(=O)N2C1)N1CC/C=C\C[C@@H](C1=O)N(C)C(=O)CN(C1CC1)C(=O)[C@H]([C@@H](C)CC)NC3=O` [PP3088], in assay [1] (GDP-bound wild-type proteins), the “NRAS/KRAS (ratio of KD value with respect to GDP-bound NRAS wild-type protein to KD value with respect to KRAS)” value was “B (a compound having 3 or more and less than 10 is denoted as B)”. The “HRAS/KRAS (ratio of KD value with respect to GDP-bound HRAS wild-type protein to KD value with respect to KRAS)” value in assay [2] (GDP-bound wild-type proteins) is “B (a compound having 3 or more and less than 10 is denoted as B)”.

These data come from patent US20250230193A1, “CYCLIC COMPOUND HAVING SELECTIVE KRAS INHIBITORY EFFECT ON HRAS AND NRAS” (CHUGAI SEIYAKU KABUSHIKI KAISHA, priority 2022, published 2025).
